Measurements reported in US10085449B2, “N-[1-((6-chloropyridin-3-yl)methyl)pyridin-2(1H)-ylidene]-2,2,2- trifluoroacetamide for control of agricultural/horticultural pests” (priority 2010, dated 2018).
Like-named read-outs stand apart in the source and are kept apart here.

Columns and labels:
[1] = tested on: canine heartworm microfilariae; experiment: Effects on canine heartworm (motility of microfilariae); design: key: At least two-thirds of the heartworms died; B: Substantially all the heartworms were affected in some way, or at least one-third died; C: No influence, or less than one-third of the heartworms died; conditions: 3.13 ppm in RPMI1640 liquid culture medium, 37° C., observed for 48 hours
Experimental: The activities of the compounds were evaluated based on changes in the motility of microfilariae in canine heartworm. The respective compounds were dissolved in a RPMI1640 liquid culture medium to a concentration of 3.13 ppm, following which about 20 canine heartworm microfilariae were placed in each culture fluid and cultured at 37° C.
Criteria A: At least two-thirds of the heartworms died • B: Substantially all the heartworms were affected in some way, or at least one-third died • C: No influence, or less than one-third of the heartworms died

[2] = tested on: greenhouse whitefly; experiment: whole plant or invertebrate; type: in vivo; conditions: 20 ppm foliar application, eggs on cucumber leaf discs, 14 days after spraying
Experimental: Adult greenhouse whiteflies were released onto cucumber plants grown in pots, and allowed to laid eggs overnight. One day after the start of oviposition, the adults were removed, and the plants and eggs were held in an incubation chamber at 25° C. (16-hour period of light, 8-hour dark period). Three days after the end of oviposition, leaf discs 2.0 cm in diameter were cut from the cucumber plants and, after confirming oviposition thereon, the leaf discs were sprayed with solutions of the inventive compounds at a predetermined concentration prepared to 50% acetone/water (containing 0.05% Tween 20). After spraying, the treated leaf discs were held in an incubation chamber at 25° C. (16-hour period of light, 8-hour dark period). Fourteen days after spraying, the numbers of live and dead insects were counted, and the mortality was calculated from the following formula. This was a two-replication test. Mortality (%)=[(number of oviposited eggs−number of live insects)/number of oviposited eggs]×100

[3] = tested on: diamondback moth; experiment: whole plant or invertebrate; type: in vivo; conditions: Plutella xylostella, foliar
Experimental: (§1) Leaf discs 5.0 cm in diameter were cut from cabbage plants grown in pots, and these were sprayed with solutions of the inventive compounds at a predetermined concentration prepared to 50% acetone/water (containing 0.05% Tween 20). The treated leaf discs were air dried, following which second-instar larvae were released onto the discs. The leaf discs and larvae were then held in an incubation chamber at 25° C. (16-hour period of light, 8-hour dark period). Three days after released, the numbers of live and dead insects were counted, and the mortality was calculated from the following formula. This was a two-replication test. Mortality (%)=[number of dead insects/(number of live insects+number of dead insects)]×100

[4] = tested on: common cutworm; experiment: whole plant or invertebrate; type: in vivo; conditions: for Insecticidal effects (mortality), common cutworm third-instar larvae: foliar application
Experimental: as §1, with “third-instar” for “second-instar”

[5] = tested on: cotton aphid; experiment: whole plant or invertebrate; type: in vivo; conditions: Aphis gossypii, foliar
Experimental: as §1, with “2.0” for “5.0”, “cucumber” for “cabbage”, “first-instar” for “second-instar”

[6] = tested on: small brown planthopper; experiment: whole plant or invertebrate; type: in vivo; conditions: Laodelphax striatellus, foliar
Experimental: as §1, with “Rice seedlings” for “Leaf discs 5.0 cm in diameter were cut from cabbage plants”, “pots” for “pots, and these”, “subjected to the foliar application of” for “sprayed with”, “seedlings” for “leaf discs”, “seedlings.” for “discs.”

[7] = tested on: western flower thrips; experiment: whole plant or invertebrate; type: in vivo; conditions: Frankliniella occidentalis, foliar
Experimental: as §1, with “2.8” for “5.0”, “bean” for “cabbage”, “first-instar” for “second-instar”

[8] = tested on: rice leaf bug; experiment: whole plant or invertebrate; type: in vivo; conditions: foliar, 72 h
Experimental: The treated seedlings were air-dried, then each was placed in a glass cylinder and two second-instar rice leaf bug larvae were released within the same glass cylinder. Following release of the insects, the tube was capped and held in an incubation chamber at 25° C. (16-hour period of light, 8-hour dark period). […] Three days after released, the numbers of live and dead insects were counted, and the mortality was calculated from the following formula. Mortality (%)=[number of dead insects/(number of live insects+number of dead insects)]×100

[9] = tested on: small brown planthopper; experiment: whole plant or invertebrate; type: in vivo; conditions: Laodelphax striatellus, in Triticum aestivum, 96 h; for mortality at 0.5 mg/seedling / mortality at 2 mg/seedling / mortality at 20 mg/seedling: read-out: Insecticidal effects (mortality), small brown planthopper second-instar larvae
Experimental: Wheat seedling roots 48 hours after sowing were treated with solutions of the inventive compounds at a predetermined concentration prepared to 10% acetone/water. After allowing the roots to absorb the chemical for 72 hours, ten second-instar small brown planthopper larvae were released onto each seedling. The treated seedlings and larvae were then held in an incubation chamber at 25° C. (16-hour period of light, 8-hour dark period). Four days after released, the numbers of live and dead insects were counted, and the mortality was calculated from the following formula. The test was carried out as two replications. Mortality (%)=[number of dead insects/(number of live insects+number of dead insects)]×100

[10] = tested on: small brown planthopper; experiment: whole plant or invertebrate; type: in vivo; conditions: Laodelphax striatellus, 72 h; for pest or weed control at 0.005 mg/pot / pest or weed control at 0.01 mg/pot / pest or weed control at 0.05 mg/pot: rice soil drenching, read-out: Small brown planthopper (rice soil drenching), effect; for pest or weed control at 0.005 mg/pot: 0.005 mg/pot (Table 13); for pest or weed control at 0.01 mg/pot: 0.01 mg/pot (Table 13); for pest or weed control at 0.05 mg/pot: 0.05 mg/pot (Table 13); for mortality at 0.05 mg/seedling / mortality at 0.005 mg/pot / mortality at 0.01 mg/pot / mortality at 0.05 mg/pot: soil; for mortality at 0.005 mg/pot / mortality at 0.01 mg/pot / mortality at 0.05 mg/pot: read-out: Insecticidal effects (mortality), small brown planthopper second-instar larvae
Experimental: (§2) Rice seedlings grown in pots were subjected to soil drenching treatment with solutions of the inventive compounds at a predetermined concentration prepared to 10% acetone/water. Three days following treatment, ten second-instar small brown planthopper larvae were released onto each seedling. The treated seedlings and larvae were then held in an incubation chamber at 25° C. (16-hour period of light, 8-hour dark period). Three days after released, the numbers of live and dead insects were counted, and the mortality was calculated from the following formula. The test was carried out as two replications. Mortality (%)=[number of dead insects/(number of live insects+number of dead insects)]×100

[11] = tested on: small brown planthopper having a low susceptibility to insecticides; experiment: Small brown planthopper control test, pests having a low susceptibility to insecticides (soil drenching); type: in vivo; conditions: 0.01 mg/seedling soil drenching
Experimental: as §2, with “days after” for “days following”, “larvae having a low susceptibility to insecticides” for “larvae”, “The” for “The treated”, “and insects” for “and larvae”
The pests used in this test were insects that had been raised indoors for successive generations over a long period of time (susceptible line), and insects that had been raised indoors for successive generations after being collected in 2006 within Kumamoto Prefecture (field-collected line).

[12] = read-out: Insecticidal effects (mortality), diamondback moth second-instar larvae
[13] = read-out: Insecticidal effects (mortality), cotton aphid first-instar larvae
[14] = read-out: Insecticidal effects (mortality), small brown planthopper second-instar larvae
[15] = read-out: Insecticidal effects (mortality), western flower thrips first-instar larvae

## CSC(=S)SCCN(C#N)Cc1ccc(Cl)nc1 [Compound 6, 2-[N-(6-chloro-3-pyridylmethyl)cyanamide] ethyl methylcarbonotrithioate]
[1]
  Microfilaricidal effect (motility rating): B

## CCSC(=S)SCCN(C#N)Cc1ccc(Cl)nc1 [Compound 7]
[1]
  Microfilaricidal effect (motility rating): B

## CCCSC(=S)SCCN(C#N)Cc1ccc(Cl)nc1 [Compound 8]
[1]
  Microfilaricidal effect (motility rating): B

## O=C(N=c1ccccn1Cc1cnc(Cl)s1)C(F)(F)F [Compound 213]
[2]
  Mortality: at least 80%

## O=C(N=c1ccccn1Cc1cnc(Cl)c(F)c1)C(F)(F)F [Compound 227, N-[1-((6-chloro-5-fluoropyridin-3-yl)methyl)pyridin-2(1H)-ylidene]-2,2,2-trifluoroacetamide]
[3]; [12]
  mortality at 20 ppm: 100%
  mortality at 100 ppm: 100%
  mortality at 500 ppm: 100%
[3]; in Brassica oleracea, 72 h
  mortality at 100 ppm: ≥ 80%
  mortality at 500 ppm: ≥ 80%
[4]; 100 ppm
  Insecticidal effects (mortality), common cutworm third-instar larvae: 56
[4]; 500 ppm
  Insecticidal effects (mortality), common cutworm third-instar larvae: 100
[4]; foliar, 72 h
  mortality at 500 ppm: ≥ 80%
[5]; [13]
  mortality at 1.25 ppm: 95%
  mortality at 5 ppm: 100%
  mortality at 20 ppm: 100%
  mortality at 100 ppm: 100%
  mortality at 500 ppm: 100%
[5]; in Cucumis sativus, 72 h
  mortality at 20 ppm: ≥ 80%
  mortality at 100 ppm: ≥ 80%
  mortality at 500 ppm: ≥ 80%
[6]; [14]
  mortality at 5 ppm: 100%
[6]; in Oryza sativa, 72 h
  mortality at 100 ppm: ≥ 80%
[7]; 72 h
  mortality at 500 ppm: ≥ 80%
[7]; [15]
  mortality at 100 ppm: 65%
  mortality at 500 ppm: 90%
[8]
  mortality at 50 ppm: ≥ 80%
[9]
  mortality at 20 µg/seedling: ≥ 80%
  mortality at 0.5 mg/seedling: 50%
  mortality at 2 mg/seedling: 75%
  mortality at 20 mg/seedling: 100%
[10]
  pest or weed control at 0.005 mg/pot: 75%
  pest or weed control at 0.01 mg/pot: 100%
  pest or weed control at 0.05 mg/pot: 90%
  mortality at 0.05 mg/seedling: ≥ 80%
  mortality at 0.005 mg/pot: 75%
  mortality at 0.01 mg/pot: 100%
  mortality at 0.05 mg/pot: 90%

## O=C(N=c1ccccn1Cc1ccc(Br)nc1)C(F)(F)F [Compound 231, N-[1-((6-bromopyridin-3-yl)methyl)pyridin-2(1H)-ylidene]-2,2,2-trifluoroacetamide]
[3]; [12]
  mortality at 20 ppm: 100%
  mortality at 100 ppm: 100%
[3]; in Brassica oleracea, 72 h
  mortality at 100 ppm: ≥ 80%
[4]; 100 ppm
  Insecticidal effects (mortality), common cutworm third-instar larvae: 0
[4]; 500 ppm
  Insecticidal effects (mortality), common cutworm third-instar larvae: 0
[5]; [13]
  mortality at 1.25 ppm: 74%
  mortality at 5 ppm: 100%
  mortality at 20 ppm: 100%
[5]; in Cucumis sativus, 72 h
  mortality at 20 ppm: ≥ 80%
[6]; [14]
  mortality at 100 ppm: 100%
[7]; 72 h
  mortality at 500 ppm: ≥ 80%
[7]; [15]
  mortality at 100 ppm: 55%
  mortality at 500 ppm: 85%
[8]
  mortality at 50 ppm: ≥ 80%
[9]
  mortality at 20 µg/seedling: ≥ 80%
  mortality at 0.5 mg/seedling: 25%
  mortality at 2 mg/seedling: 75%
  mortality at 20 mg/seedling: 100%
[10]
  pest or weed control at 0.005 mg/pot: 70%
  pest or weed control at 0.01 mg/pot: 100%
  pest or weed control at 0.05 mg/pot: 100%
  mortality at 0.05 mg/seedling: ≥ 80%
  mortality at 0.005 mg/pot: 70%
  mortality at 0.01 mg/pot: 100%
  mortality at 0.05 mg/pot: 100%

## N#Cc1nn(-c2c(Cl)cc(C(F)(F)F)cc2Cl)c(N)c1[S+]([O-])C(F)(F)F (stereo not shown) [fipronil]
[11]; field-collected line (2006 Kumamoto Prefecture)
  Mortality: 70%
[11]; susceptible line
  Mortality: 100%
